Source: patent US20240150293A1, “SPIROCYCLOHEXANE DERIVATIVES, PHARMACEUTICAL COMPOSITIONS CONTAINING THEM AND THEIR USES AS ANTI-APOPTOTIC INHIBITORS” (LES LABORATOIRES SERVIER, priority 2021, published 2024)

Target: Mcl-1 protein (UniProtKB Q07820) (Homo sapiens (Human), UniProt Q07820)
Experiment: Inhibition of Mcl-1 by the fluorescence polarisation assay (Example A, Method A)
Assay type: binding
Details: fluorescence polarization assay
Summary of the method: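 Protein (5 nM) and fluorescein-tagged peptide tracer (1 nM) incubated with 11-point compound series for 2 h at room temperature in HEPES/NaCl/Tween 20 buffer, pH 7.4, 5% DMSO. Displacement read as decrease in polarisation; IC50 fitted by 4-parameter logistic, converted to Ki (cKi or eKi).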

Sequence of Mcl-1 protein (Q07820 whole entry): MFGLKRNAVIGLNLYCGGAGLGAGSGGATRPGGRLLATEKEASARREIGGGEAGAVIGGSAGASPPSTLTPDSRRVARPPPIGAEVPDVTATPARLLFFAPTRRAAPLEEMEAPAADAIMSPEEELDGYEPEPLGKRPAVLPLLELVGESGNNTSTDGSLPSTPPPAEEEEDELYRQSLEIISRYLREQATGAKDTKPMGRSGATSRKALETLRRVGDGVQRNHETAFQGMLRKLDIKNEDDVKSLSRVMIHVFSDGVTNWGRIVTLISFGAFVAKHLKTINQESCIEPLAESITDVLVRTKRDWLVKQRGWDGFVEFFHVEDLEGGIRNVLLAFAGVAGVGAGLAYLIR

Structure (SMILES) | Ki [nM]
O=C(O)[C@]1(Nc2cccc(Cl)c2)CC[C@]2(CC1)C(c1ccoc1)=Cc1ccccc12 [Example 329, (1s,4s)-4-(3-chloroanilino)-2′-(furan-3-yl)spiro[cyclohexane-1,1′-indene]-4-carboxylic acid] | 1650
CCc1ccc2c(c1)[C@]1(CC[C@](Nc3cccc(Br)c3)(C(=O)O)CC1)C(=O)N2C [Example 8, (1r,4r)-4-(3-bromoanilino)-5′-ethyl-1′-methyl-2′-oxo-1′,2′-dihydrospiro[cyclohexane-1,3′-indole]-4-carboxylic acid] | 22500
COc1cccc(N2Cc3ccccc3[C@]23CC[C@@](Nc2cccc(Br)c2)(C(=O)O)CC3)c1 [Example 32, (1s,4s)-4-(3-bromoanilino)-2′-(3-methoxyphenyl)-2′,3′-dihydrospiro[cyclohexane-1,1′-isoindole]-4-carboxylic acid] | 3210
CN1c2ccc(/C=C/Cc3ccccc3)cc2[C@]2(CC[C@](Nc3cccc(Br)c3)(C(=O)O)CC2)C1=O [Example 19, (1r,4r)-4-(3-bromoanilino)-1′-methyl-2′-oxo-5′-[(1E)-3-phenylprop-1-en-1-yl]-1′,2′-dihydrospiro[cyclohexane-1,3′-indole]-4-carboxylic acid] | 21100
Cn1cc(C2Cc3ccccc3[C@]23CC[C@@](Nc2cccc(Br)c2)(C(=O)O)CC3)cn1 (stereo partly shown) [Example 212, (1r,4r)-4-(3-bromoanilino)-2′-(1-methyl-1H-pyrazol-4-yl)-2′,3′-dihydrospiro[cyclohexane-1,1′-indene]-4-carboxylic acid] | 9470
Cc1cccc(C)c1C1=Cc2ccccc2[C@]12CC[C@@](Nc1cccc(Cl)c1)(C(=O)O)CC2 [Example 249, (1s,4s)-4-(3-chloroanilino)-2′-(2,6-dimethylphenyl)spiro[cyclohexane-1,1′-indene]-4-carboxylic acid] | 19000
COc1ccc(C)c(C2Cc3ccccc3[C@]23CC[C@@](Nc2cccc(Cl)c2)(C(=O)O)CC3)c1 (single isomer, unassigned) [Example 271, (1r,4r)-4-(3-chloroanilino)-2′-(5-methoxy-2-methylphenyl)-2′,3′-dihydrospiro[cyclohexane-1,1′-indene]-4-carboxylic acid] | 12500
CCC1=C(C)[C@]2(CC[C@](Nc3cccc(Cl)c3)(C(=O)O)CC2)c2ccccc21 [Example 205, (1r,4r)-4-(3-chloroanilino)-3′-ethyl-2′-methylspiro[cyclohexane-1,1′-indene]-4-carboxylic acid] | 1710
COc1ccc(C)c(C2Cc3ccccc3[C@]23CC[C@@](Nc2cccc(Cl)c2)(C(=O)O)CC3)c1 (single isomer, unassigned) [Example 270, (1r,4r)-4-(3-chloroanilino)-2′-(5-methoxy-2-methylphenyl)-2′,3′-dihydrospiro[cyclohexane-1,1′-indene]-4-carboxylic acid] | 3960

Second part, the compound after the results:

Ki [nM] | Structure (SMILES)
473 | O=C(O)[C@]1(Nc2cccc(Cl)c2)CC[C@@]2(CC1)c1ccccc1C[C@H]2c1ccc2occc2c1 [Example 281, (1r,2′S,4S)-2′-(1-benzofuran-5-yl)-4-(3-chloroanilino)-2′,3′-dihydrospiro[cyclohexane-1,1′-indene]-4-carboxylic acid]
710 | COc1ccc(CCCC2=Cc3ccccc3[C@]23CC[C@@](Nc2cccc(Cl)c2)(C(=O)O)CC3)cc1 [Example 155, (1r,4r)-4-(3-chloroanilino)-2′-[3-(4-methoxyphenyl)propyl]spiro[cyclohexane-1,1′-indene]-4-carboxylic acid]
221 | O=C(O)[C@]1(Nc2cccc(Cl)c2)CC[C@@]2(CC1)c1ccccc1CC2c1cccc(OCc2ccncc2)c1 (single isomer, unassigned) [Example 373, (1r,4r)-4-(3-chloroanilino)-2′-{3-[(pyridin-4-yl)methoxy]phenyl}-2′,3′-dihydrospiro[cyclohexane-1,1′-indene]-4-carboxylic acid]
648 | COc1cccc(CCOCC2=Cc3ccccc3[C@]23CC[C@@](Nc2cccc(Cl)c2)(C(=O)O)CC3)c1 [Example 418, (1s,4s)-4-(3-chloroanilino)-2′-{[2-(3-methoxyphenyl)ethoxy]methyl}spiro[cyclohexane-1,1′-indene]-4-carboxylic acid]
571 | O=C(O)[C@]1(Nc2cncc(Br)c2)CC[C@]2(CC1)C(Br)=Cc1ccccc12 [Example 79, (1s,4s)-2′-bromo-4-[(5-bromopyridin-3-yl)amino]spiro[cyclohexane-1,1′-indene]-4-carboxylic acid]
1370 | CN(CCc1ccccc1)C(=O)C1Cc2ccccc2[C@]12CC[C@@](Nc1cccc(Cl)c1)(C(=O)O)CC2 (single isomer, unassigned) [Example 407, (1r,4r)-4-(3-chloroanilino)-2′-[methyl(2-phenylethyl)carbamoyl]-2′,3′-dihydrospiro[cyclohexane-1,1′-indene]-4-carboxylic acid]
528 | O=C(O)[C@]1(Nc2cccc(Cl)c2)CC[C@]2(CC1)C(c1cccc(OC(F)(F)F)c1)=Cc1ccccc12 [Example 314, (1s,4s)-4-(3-chloroanilino)-2′-[3-(trifluoromethoxy)phenyl]spiro[cyclohexane-1,1′-indene]-4-carboxylic acid]
110 | Cc1c[nH]c2nccc(OCCCC3Cc4ccccc4[C@]34CC[C@@](Nc3cccc(Cl)c3)(C(=O)O)CC4)c12 (stereo partly shown) [Example 458, (1r,4r)-4-(3-chloroanilino)-2′-{3-[(3-methyl-1H-pyrrolo[2,3-b]pyridin-4-yl)oxy]propyl}-2′,3′-dihydrospiro[cyclohexane-1,1′-indene]-4-carboxylic acid]
476 | O=C(O)[C@]1(Nc2cccc(Cl)c2)CC[C@@]2(CC1)c1ccccc1C[C@H]2c1ccc(-c2ccccc2)o1 [Example 356, (1r,2′R,4R)-4-(3-chloroanilino)-2′-(5-phenylfuran-2-yl)-2′,3′-dihydrospiro[cyclohexane-1,1′-indene]-4-carboxylic acid]
32.8 | CC1CCc2nccc(OC[C@H](C)CC3Cc4ccccc4[C@]34CC[C@@](Nc3cccc(Cl)c3)(C(=O)O)CC4)c21 (single isomer, unassigned) [Example 601]
402 | O=C(O)[C@]1(Nc2cccc(Cl)c2)CC[C@@]2(CC1)c1ccccc1CC2c1cccc(OCC2CC2)c1 (single isomer, unassigned) [Example 354, (1r,4r)-4-(3-chloroanilino)-2′-[3-(cyclopropylmethoxy)phenyl]-2′,3′-dihydrospiro[cyclohexane-1,1′-indene]-4-carboxylic acid]
1620 | O=C(O)[C@]1(Nc2cccc(Cl)c2)CC[C@@]2(CC1)c1ccccc1CC2[C@H]1C[C@@H]1COc1ccccc1 (single isomer, unassigned) [Example 112, (1r,4r)-4-(3-chloroanilino)-2′-[(1R*,2S*)-2-(phenoxymethyl)cyclopropyl]-2′,3′-dihydrospiro[cyclohexane-1,1′-indene]-4-carboxylic acid]
325 | CC(C)c1cncnc1OCCCC1Cc2ccccc2[C@]12CC[C@@](Nc1cccc(Cl)c1)(C(=O)O)CC2 (mixture of isomers) [Example 461, (1r,4r)-4-(3-chloroanilino)-2′-(3-{[5-(propan-2-yl)pyrimidin-4-yl]oxy}propyl)-2′,3′-dihydrospiro[cyclohexane-1,1′-indene]-4-carboxylic acid]
